# From publication PMC13429874, “ABHD2 activity is not required for the non-genomic action of progesterone on human sperm” (Human Reproduction (Oxford, England), 2026)
# How the values were obtained:
# ABHD2^L33–E425 [1] = target: T1, ABHD2^L33–E425 (Homo sapiens, UniProt P08910); assay: Differential scanning fluorimetry (DSF) with purified ABHD2^L33–E425; assay type: binding; conditions: for effect on heat-induced denaturation of ABHD2^L33–E425 (DSF binding): 40 µM steroid, 30 min pre-incubation; for ΔTm shift for ABHD2^L33-425 determined by DSF: purified protein
# T1 construct: expression for ABHD2 amino acids L33–E425, in which a predicted transmembrane domain (amino acids 1–32) is removed; His6-FLAG (N); made in house; host or cells: E. coli BL21(DE3)-R3-pRARE2
# T1 sequence (P08910 33-425): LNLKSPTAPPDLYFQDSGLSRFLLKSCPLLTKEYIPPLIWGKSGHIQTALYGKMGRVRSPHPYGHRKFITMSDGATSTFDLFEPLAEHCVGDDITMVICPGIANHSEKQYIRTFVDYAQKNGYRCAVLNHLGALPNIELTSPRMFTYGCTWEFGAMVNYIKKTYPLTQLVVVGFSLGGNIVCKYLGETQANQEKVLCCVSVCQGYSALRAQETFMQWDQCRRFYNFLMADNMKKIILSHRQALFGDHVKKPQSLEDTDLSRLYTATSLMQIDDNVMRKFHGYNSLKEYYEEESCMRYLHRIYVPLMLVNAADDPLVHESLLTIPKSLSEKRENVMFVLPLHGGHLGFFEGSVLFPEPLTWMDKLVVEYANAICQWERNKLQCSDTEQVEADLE
# [2] = target: T2, full-length human ABHD2 (ABHD2^FL) (Homo sapiens, UniProt P08910); assay: ABHD2^FL enzymatic activity assay with 7-HCA substrate; assay type: biochemical; conditions: for effect on enzymatic activity of purified ABHD2^FL: 7-HCA and RB substrates (Suppl. Fig. S4A,B), weak effects at ≥5 µM
# T2 construct: TEV site-eGFP-8xHis (C, cleaved yes); made in house; host or cells: SF9 insect cells (baculovirus)
# T2 sequence (P08910 1-425): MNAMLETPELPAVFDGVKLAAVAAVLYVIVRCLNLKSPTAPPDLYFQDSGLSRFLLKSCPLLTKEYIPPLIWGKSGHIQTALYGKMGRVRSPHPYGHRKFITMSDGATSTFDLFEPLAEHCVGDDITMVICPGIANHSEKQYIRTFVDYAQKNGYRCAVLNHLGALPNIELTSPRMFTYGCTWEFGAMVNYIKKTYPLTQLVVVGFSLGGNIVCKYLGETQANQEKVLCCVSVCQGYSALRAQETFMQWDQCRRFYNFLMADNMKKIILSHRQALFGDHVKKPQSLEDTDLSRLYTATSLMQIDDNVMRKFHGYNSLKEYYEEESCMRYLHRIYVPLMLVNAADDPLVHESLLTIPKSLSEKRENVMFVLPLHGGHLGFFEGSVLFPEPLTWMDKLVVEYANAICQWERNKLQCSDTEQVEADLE
# ABHD2^L33–E425 [3] = target: T1, ABHD2^L33–E425; assay: ABHD2^L33-E425 fluorometric enzymatic activity assay with 7-HCA substrate; assay type: biochemical; conditions: for effect on enzymatic activity of purified ABHD2^L33–E425: 5 µM steroid or triterpenoid, 300 nM 7-HCA; for IC50: 10 nM enzyme, 10 µM 7-HCA, read-out: IC50 for ABHD2^L33-425, fluorometric assay using 7-HCA
# CatSper = conditions: cited from earlier work
effect on heat-induced denaturation of ABHD2^L33–E425 (DSF binding) (ABHD2^L33–E425 [1]),effect on enzymatic activity of purified ABHD2^FL [2],effect on enzymatic activity of purified ABHD2^L33–E425 (ABHD2^L33–E425 [3]),Compound,other results
did not affect,did not alter,did not alter,C[C@]12CCC(=O)C=C1CC[C@@H]1[C@@H]2[C@@H](O)C[C@@]2(C)[C@H]1CC[C@]2(O)C(=O)CO [hydrocortisone],
,did not alter,did not alter,C[C@]12CC[C@@H]3c4ccc(O)cc4CC[C@H]3[C@@H]1CC[C@@H]2O [17β-estradiol],
,,,O=C(N1CCCCC1)N1CCCC[C@H]1Cc1ccccc1 [(S)-1],ΔTm shift for ABHD2^L33-425 determined by DSF (ABHD2^L33–E425 [1]): 2.5 °C; IC50 (ABHD2^L33–E425 [3]): 3 µM
,,,"CCCCC/C=C\C/C=C\C/C=C\C/C=C\CCCC(=O)Oc1ccc2ccc(=O)oc2c1 [Compound 7-HCA, 7-hydroxycoumarinyl arachidonate]",Km ([2]; read-out: Km of substrate hydrolysis by ABHD2^FL): 59 µM; kcat of substrate hydrolysis by ABHD2^L33–E425 (ABHD2^L33–E425 [3]): 2.8 pmol substrate/min/pmol enzyme; Km (ABHD2^L33–E425 [3]; read-out: Km of substrate hydrolysis by ABHD2^L33–E425): 0.28 µM
did not affect,did not alter,did not alter,CC(C)CCC[C@@H](C)[C@H]1CC[C@H]2[C@@H]3CC=C4C[C@@H](O)CC[C@]4(C)[C@H]3CC[C@]12C [cholesterol],
,,,O=C(N1CCCCC1)N1CCCC[C@H]1c1ccccc1 [(S)-2],"ΔTm shift for ABHD2^L33-425 determined by DSF (ABHD2^L33–E425 [1]): 2.7 °C; IC50 ([2]; Supplementary Table S2, read-out: IC50 measured in ABHD2^FL in the 7-HCA Assay): 5.9 µM; IC50 (ABHD2^L33–E425 [3]): 2.1 µM"
did not affect,,weak inhibitory action,C=C(C)[C@@H]1CC[C@]2(C)CC[C@]3(C)[C@H](CC[C@@H]4[C@@]5(C)CC[C@H](O)C(C)(C)[C@@H]5CC[C@]43C)[C@@H]12 [lupeol],"progesterone-induced CatSper activation (CatSper; ref Brenker et al., 2018, Rehfeld, 2020, Rehfeld and Marcus Pedersen, 2022): do not interfere; progesterone-induced Ca2+ influx and hyperactivation (CatSper; ref Mannowetz et al., 2017): inhibitors"
